The target of this assay is T1, human F508del CFTR (Homo sapiens, UniProt P13569, DEL508-508).
T1 construct: expressed in transfected cells; host or cells: Fisher Rat Thyroid (FRT) cells
In words: CFTR-YFP High Throughput Assay. The assay is classed as cell-based. Particulars: FRT cells expressing human F508del CFTR and YFP; for Emax: EMax normalized to the positive control, read-out: % Efficacy. As to the method:
Assays for Detecting and Measuring the Effect of Compounds on F508del-CFTR Channels CFTR-YFP High Throughput Assay-CFTR Corrector Protocol:
This protocol is designed to selectively screen small molecule compounds for F508del CFTR corrector activities in the HTS YFP (yellow fluorescent protein) flux assay. In this protocol, the cells are incubated with testing compounds for 24 hours, washed with PBS, stimulated with forskolin and a standard potentiator, and fluorescence in each plate well is measured kinetically read on a 384-well HTS plate reader, such as the Hamamatsu FDSS-6000.
YFP fluorescence intensity values are acquired at high speed before and after iodide buffer is injected to the assay cells. Iodide enters the cells via active CFTR channels in the plasma membrane, and quenches the YFP fluorescence. The rate of fluorescence quenching is proportionate to the total CFTR activity in the cell membrane. F508del CFTR correctors increase the number of CFTR molecules in the testing cell plasma membrane, and thereby accelerate YFP quenching.
This method was initially developed for bench top plate readers (Galietta et al., 2001), and was adapted to the HTS format (Sui et al. Assay Drug Dev. Technol. 2010).
Fisher Rat Thyroid (FRT) cells stably expressing both human F508del CFTR and a halide-sensitive yellow fluorescent protein (YFP-H148Q/I152L 25,22) (Galietta et al. Am. J. Physiol Cell Physiol 281(5), C1734, 2001) were cultured on plastic surface in Coon's modified Ham's F12 medium supplemented with FBS 10%, L-glutamine 2 mM, penicillin 100 U/ml, and streptomycin 100 µg/ml. G418 (0.75-1.0 mg/ml) and zeocin (3.2 ug/ml) were used for selection of FRT cells expressing F508del CFTR and YFP. For primary screening, FRT cells were plated into 384-well black wall, transparent bottom microtiter plates (Costar; Corning Inc.) at a cell density of 20,000-40,000 per well. Test compound was applied to the cells at varying concentrations ranging from 2 nM-40 μM in either a 2-fold or 3-fold dilution series. Cells were incubated in a cell culture incubator at 37° C. with 5% CO2 for 24-26 h. Assay plates were washed with DPBS media (Thermo, cat# SH30028.02) to remove unbound cells and compound. Stimulation media (25 μL) containing 20 μM Forskolin & 30 μM P3 [6-(Ethyl-phenyl-sulfonyl)-4-oxo-1,4-dihydro-quinoline-3-carboxylic acid 2-methoxy-benzylamide] in Hams F-12 coon's modified media was added to the plate wells and incubated at room temperature for 60-120 min. […] (10 mM HEPES, 1 mM MgCl2, 3 mM KCl, 1 mM CaCl2, 150 mM NaI) was then added and fluorescence quench curves (Excitation 500 nm/Emission 540 nm; exposure 136 ms) were immediately recorded on an FDSS-6000 plate reader (Hamamatsu). Quench rates were derived from least squares fitting of the data as described by Sui et al (2010).
CFTR-YFP High Throughput Assay-CFTR Potentiator Protocol:
This protocol is designed to selectively screen small molecule compounds for F508del CFTR potentiator activities in the HTS YFP flux assay. Such compounds act acutely to stimulate CFTR already expressed on the membrane surface. In this protocol, the cells are incubated at 27° C. for 24 hours to homogeneously boost F508del CFTR expression in the cell membrane (low temperature correction), washed with PBS, treated with test compound, and CFTR activity is stimulated with forskolin for 1-2 hr. Measurement of ion flux is initiated by addition of iodide-containing buffer, and YFP quenching is kinetically recorded using a 384-well HTS plate reader, such as the Hamamatsu FDSS-6000.
YFP fluorescence intensity values are acquired at high speed over a 1 min time course before and after iodide buffer is injected to the assay cells. Iodide enters the cells via active CFTR channels in the plasma membrane, and quenches the YFP fluorescence. The rate of fluorescence quenching is proportionate to total CFTR activity in the cell membrane. […]

Structures are written as SMILES.

For 23 compounds, Emax and EC50 results are on record in patent US10370366B2 (Flatley Discovery Lab, LLC, priority 2013, dated 2019).

T1 sequence (P13569 with tags, fused parts or gaps DEL508-508): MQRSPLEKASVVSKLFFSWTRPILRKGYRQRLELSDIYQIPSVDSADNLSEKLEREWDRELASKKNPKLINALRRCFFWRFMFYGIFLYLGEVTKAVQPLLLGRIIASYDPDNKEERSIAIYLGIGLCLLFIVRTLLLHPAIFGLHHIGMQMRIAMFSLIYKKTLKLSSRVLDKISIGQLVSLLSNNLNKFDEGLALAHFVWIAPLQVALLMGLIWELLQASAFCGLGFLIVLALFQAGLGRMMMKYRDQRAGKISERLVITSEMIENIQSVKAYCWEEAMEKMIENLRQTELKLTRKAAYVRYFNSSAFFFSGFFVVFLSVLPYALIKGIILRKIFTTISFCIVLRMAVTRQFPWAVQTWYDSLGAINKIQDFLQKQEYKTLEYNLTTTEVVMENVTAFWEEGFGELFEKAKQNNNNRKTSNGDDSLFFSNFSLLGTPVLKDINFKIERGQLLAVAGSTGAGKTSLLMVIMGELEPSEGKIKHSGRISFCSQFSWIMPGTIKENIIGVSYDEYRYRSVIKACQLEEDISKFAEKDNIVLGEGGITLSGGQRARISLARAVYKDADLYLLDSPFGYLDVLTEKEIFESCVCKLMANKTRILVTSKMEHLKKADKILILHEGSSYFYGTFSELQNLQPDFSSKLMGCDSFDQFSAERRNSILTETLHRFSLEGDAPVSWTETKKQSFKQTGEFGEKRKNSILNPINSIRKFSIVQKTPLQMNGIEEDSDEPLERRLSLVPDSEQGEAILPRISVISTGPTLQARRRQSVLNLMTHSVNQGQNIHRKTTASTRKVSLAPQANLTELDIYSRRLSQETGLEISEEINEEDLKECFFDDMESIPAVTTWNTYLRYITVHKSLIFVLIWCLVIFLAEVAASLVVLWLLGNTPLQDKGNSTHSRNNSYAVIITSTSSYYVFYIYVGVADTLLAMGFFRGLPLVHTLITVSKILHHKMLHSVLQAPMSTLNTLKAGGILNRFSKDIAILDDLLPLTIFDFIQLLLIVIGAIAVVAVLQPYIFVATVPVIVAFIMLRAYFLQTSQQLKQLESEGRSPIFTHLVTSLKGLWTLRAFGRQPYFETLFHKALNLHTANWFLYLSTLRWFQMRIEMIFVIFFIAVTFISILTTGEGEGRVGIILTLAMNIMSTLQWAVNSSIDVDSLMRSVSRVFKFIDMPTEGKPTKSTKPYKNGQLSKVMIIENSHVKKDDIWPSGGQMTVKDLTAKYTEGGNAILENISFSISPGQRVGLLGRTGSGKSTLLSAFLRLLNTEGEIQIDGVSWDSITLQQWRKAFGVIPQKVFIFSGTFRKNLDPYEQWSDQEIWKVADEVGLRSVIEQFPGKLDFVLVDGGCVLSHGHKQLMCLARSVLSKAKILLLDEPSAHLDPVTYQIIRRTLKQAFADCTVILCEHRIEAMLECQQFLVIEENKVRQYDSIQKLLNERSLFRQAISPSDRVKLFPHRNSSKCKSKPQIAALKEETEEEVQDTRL

What is called EC50 is the concentration needed to bring the measured effect to its halfway point. In the case of `CCN(C(=O)c1nn(-c2ccc(C)cc2)c(=O)c2c1c1ccc(OC)cc1n2C)c1ccccc1` [Example 188, N-ethyl-7-methoxy-5-methyl-4-oxo-N-phenyl-3-(p-tolyl)-4,5-dihydro-3H-pyridazino[4,5-b]indole-1-carboxamide], the Emax lay within 30 to 80% and the EC50 is greater than 20 µM.
For the compound `CCN(C(=O)Cn1nc(-c2cccc(F)c2)c2ccccc2c1=O)c1ccc2c(c1)OC(F)(F)O2` [Example 23, N-(2,2-difluorobenzo[d][1, 3]dioxol-5-yl)-N-ethyl-2-(4-(3-fluorophenyl)-1-oxophthalazin-2(1H)-yl)acetamide], the Emax is greater than 80% and the EC50 was less than 10 µM.
For `Cn1c2ccccc2c2c(-c3ccccc3)nn(-c3ccccc3)c(=O)c21` [Example 235], the Emax was 10 to 30% and the EC50 is greater than 20 µM.
The matching figures for `CC(C)n1nc(-c2ccccc2)c2c3ccccc3n(C)c2c1=O` [Example 239, 3-isopropyl-5-methyl-1-phenyl-3,5-dihydro-4H-pyridazino[4,5-b]indol-4-one]: 30 to 80% and greater than 20 µM.
On the same counts, the results for `CCN(CC)C(=O)c1nn(CC(O)COCc2ccccc2)c(=O)c2c1c1c(C)cccc1n2C` (centres unmarked) [Example 232, 3-(3-(benzyloxy)-2-hydroxypropyl)-N,N-diethyl-5,9-dimethyl-4-oxo-4,5-dihydro-3H-pyridazino[4,5-b]indole-1-carboxamide] are 30 to 80% and less than 10 µM.
On to `CCc1ccc(N(CC)C(=O)Cn2nc(-c3ccc(C(=O)OC)cc3)c3ccccc3c2=O)cc1` [Example 15, methyl 4-(3-(2-(ethyl(4-ethylphenyl)amino)-2-oxoethyl)-4-oxo-3,4-dihydrophthalazin-1-yl)benzoate], for which the Emax lay in the range of 10 to 30% and the EC50 is greater than 20 µM.
On the same counts, the results for `CCN(C(=O)c1nn(CC(=O)N2CCOCC2)c(=O)c2c1c1ccccc1n2C)c1ccccc1` [Example 215, N-ethyl-5-methyl-3-(2-morpholino-2-oxoethyl)-4-oxo-N-phenyl-4,5-dihydro-3H-pyridazino[4,5-b]indole-1-carboxamide] are 30 to 80% and less than 10 µM.
The matching figures for `CCN(C(=O)Cn1nc(C(=O)N(C)c2ccccn2)c2ccccc2c1=O)c1ccc2c(c1)OC(F)(F)O2` [Example 127, 3-(2-((2,2-difluorobenzo[d][1,3]dioxol-5-yl)(ethyl)amino)-2-oxoethyl)-N-methyl-4-oxo-N-(pyridin-2-yl)-3,4-dihydrophthalazine-1-carboxamide]: 30 to 80% and less than 10 µM.
The matching figures for `Cc1nc2ccc(N(C)C(=O)Cn3ncc4c(c3=O)c3ccccc3n4Cc3ccc(Cl)cc3)cc2o1` [Example 147, 2-(5-(4-chlorobenzyl)-1-oxo-1,5-dihydro-2H-pyridazino[4,5-b]indol-2-yl)-N-methyl-N-(2-methylbenzo[d]oxazol-6-yl)acetamide]: 30 to 80% and less than 10 µM.
Consider `CCN(C(=O)c1nn(-c2ccccc2)c(=O)c2c1c1ccccc1n2C)c1ncnc2c1cnn2C` [Example 164, N-ethyl-5-methyl-N-(1-methyl-1H-pyrazolo[3,4-d]pyrimidin-4-yl)-4-oxo-3-phenyl-4,5-dihydro-3H-pyridazino[4,5-b]indole-1-carboxamide], for which the Emax is 30 to 80%.
The same measure, in the same setting: the same measure for `CCN(C(=O)c1nn(-c2nc3ccccc3s2)c(=O)c2c1c1ccccc1n2C)c1ccccc1` [Example 172, 3-(benzo[d]thiazol-2-yl)-N-ethyl-5-methyl-4-oxo-N-phenyl-4,5-dihydro-3H-pyridazino[4,5-b]indole-1-carboxamide]: 10 to 30%; for `CCN(C(=O)Cn1nc(-c2cccc(C#N)c2)c2ccc(OC)cc2c1=O)c1ccc(OC(F)F)cc1` [Example 74, 2-(4-(3-cyanophenyl)-7-methoxy-1-oxophthalazin-2(1H)-yl)-N-(4-(difluoromethoxy)phenyl)-N-ethylacetamide]: 30 to 80%.
For the compound `CCN(C(=O)c1nn(-c2ccc(C)cc2)c(=O)c2c1c1ccccc1n2C)c1cc(Cl)ccc1C(=O)O` [Example 183, 4-chloro-2-(N-ethyl-5-methyl-4-oxo-3-(p-tolyl)-4,5-dihydro-3H-pyridazino[4,5-b]indole-1-carboxamido)benzoic acid], the Emax lay within 30 to 80%.
On the same count and under the same terms, the same measure for `CCc1ccc(N(CC)C(=O)Cn2nc(Cc3cccnc3)c3cnccc3c2=O)cc1` [Example 42, N-ethyl-N-(4-ethylphenyl)-2-(1-oxo-4-(pyridin-3-ylmethyl)pyrido[3,4-d]pyridazin-2(1H)-yl)acetamide]: 10 to 30%.
Same read-out and setting: the same measure for `CCc1ccc(N(CC)C(=O)Cn2nc(Cc3cccnc3)c3cc(C(C)(C)C)ccc3c2=O)cc1` [Example 34, 2-(6-(tert-butyl)-1-oxo-4-(pyridin-3-ylmethyl)phthalazin-2(1H)-yl)-N-ethyl-N-(4-ethylphenyl)acetamide]: 30 to 80%; for `CCc1ccc(N(CC)C(=O)Cn2nc(-c3cccnc3)c3ccccc3c2=O)cc1` [Example 3, N-ethyl-N-(4-ethylphenyl)-2-(1-oxo-4-(pyridin-3-yl)phthalazin-2(1H)-yl)acetamide]: 30 to 80%.
The same measure, in the same setting: the same measure for `CCc1ccc(N(CC)C(=O)Cn2nc(Cc3cccnc3)c3cccc(F)c3c2=O)cc1` [Example 37, N-ethyl-N-(4-ethylphenyl)-2-(8-fluoro-1-oxo-4-(pyridin-3-ylmethyl)phthalazin-2(1H)-yl)acetamide]: 30 to 80%.
For `CCN(C(=O)Cn1ncc2c(c1=O)c1ccccc1n2Cc1ccc(C#N)cc1F)c1ccc2c(c1)OC(F)(F)O2` [Example 146, 2-(5-(4-cyano-2-fluorobenzyl)-1-oxo-1H-pyridazino[4,5-b]indol-2(5H)-yl)-N-(2,2-difluorobenzo[d][1,3]dioxol-5-yl)-N-ethylacetamide], the Emax lay within 30 to 80% and the EC50 is less than 10 µM.
On to `CCc1ccc(N(CC)C(=O)Cn2nc(Cc3cccnc3)c3ccc(OC)cc3c2=O)cc1` [Example 35, N-ethyl-N-(4-ethylphenyl)-2-(7-methoxy-1-oxo-4-(pyridin-3-ylmethyl)phthalazin-2(1H)-yl)acetamide], for which the Emax lay in the range of 30 to 80%.
As to `Cc1ccc(-n2nc(C(=O)N(c3ccccc3)C(C)C)c3c4ccccc4n(C)c3c2=O)cc1` [Example 152, N-isopropyl-5-methyl-4-oxo-N-phenyl-3-(p-tolyl)-4,5-dihydro-3H-pyridazino[4,5-b]indole-1-carboxamide], the Emax lay in the range of 30 to 80%.
`Cc1nc2ccc(N(C(=O)Cn3nc(-c4cccc(Cl)c4)c4ccc(O)cc4c3=O)C3CC3)cc2o1` [Example 100, 2-(4-(3-chlorophenyl)-7-hydroxy-1-oxophthalazin-2(1H)-yl)-N-cyclopropyl-N-(2-methylbenzo[d]oxazol-6-yl)acetamide]: the EC50 is less than 10 µM.
Turning to `CC(C)n1nc(C(=O)N2CCCCC2)c2c3ccccc3n(C)c2c1=O` [Example 208, 3-isopropyl-5-methyl-1-(piperidine-1-carbonyl)-3,5-dihydro-4H-pyridazino[4,5-b]indol-4-one], the Emax was in the range of 10 to 30% and the EC50 is less than 10 µM.
For `CCc1ccc(N(CC)C(=O)Cn2nc(-c3cncnc3)c3ccccc3c2=O)cc1` [Example 7, N-ethyl-N-(4-ethylphenyl)-2-(1-oxo-4-(pyrimidin-5-yl)phthalazin-2(1H)-yl)acetamide], the Emax was 30 to 80% and the EC50 was greater than 20 µM.
